Test system: P. viticola
Experiment: Protection of greenhouse vine plants against downy mildew (sporulating leaf area, leaf disks, 6 dpi)
Assay type: in vivo, Plasmopara viticola
Settings: A1 1 g/L, Pip 0.1 mM, alone or combined, FIG. 5
Description: Grapevine (V. vinifera cv. Marselan) herbaceous cuttings were grown in individual pots (10×7×7 cm) containing a mixture of peat and perlite (4:1, vol/vol) in a greenhouse at 25±4 and 18±7° C. (day and night, respectively) until they developed 6-8 leaves. Artificial illumination was supplemented when the natural light was less than 200 μmol. m.^−2 s^−1 during the 16 h light period. Plants were watered with a fertilization solution (Topfert2 Plantin. France).
Alginates A1, A2, A3 with a degree of polymerization (DP) of 491, 228, 355 respectively were used. They were prepared at 1, 2 and 4 g/L in ultrapure water and applied to both the upper and lower faces of leaves until the point of run-off using a manual sprayer. Plants were maintained in the greenhouse in the conditions described above. Ultrapure water was used as negative control and sprayed in the same manner. […]
Briefly, 6 days post-inoculation (dpi), leaf disks were punched out and placed with the abaxial side uppermost, on a moist Whatman paper, in a closed plastic box. […] Disease intensity was assessed by measuring the leaf area covered by the pathogen sporulation using a “macro” developed for the image analysis Visilog 6.9 software (Noesis, France; Kim Khiook et al., 2013) and the disease reduction rate is calculated as follows: (1−(treated sporulating area/control sporulating area))×100. […]

## O=C(O)C1CCCCN1 (stereo not shown) [Pip, pipecolic acid]
  rate protection against P. viticola: around 35%

— patent publication US20230000088A1, “USE OF ALGINATES OLIGOMERS TO IMPROVE PLANT PROTECTION AGAINST PATHOGENS” (Université de Bourgogne, priority 2019, published 2023)
